Measurements from patent US6043248A, “Alpha-substituted pyrimidine-thioalkyl and alkylether compounds as inhibitors of viral reverse transcriptase” (priority 1997, dated 2000).
Values joined by “and” are separate entries in the source; they are usually repeats but may differ in a detail not shown here. Equal entries are not always repeated. Structures can show the parent of a compound that is named as a salt. Where two headings read alike, the source gives them in different places.

What was measured:
[1] = target: T1, viral reverse transcriptase (Wild Type) (Human immunodeficiency virus type 1 group M subtype B, UniProt P04585); assay: inhibition of viral reverse transcriptase (Wild Type), cell free assay; assay type: biochemical
T1 construct: Viral reverse transcriptase (Wild Type) is found in extracts from bacterial clones; made in house; host or cells: Escherichia coli
Description: The utility of the pyrimidine-thioalkyl and alkylether anti-AIDS compounds of Formula IA of this invention can be determined by their ability to inhibit viral reverse transcriptase, an enzyme essential for human immunodeficiency virus replication. This enzyme has characteristics which differentiate it from other known cellular polymerases and it is a unique enzyme which is not found in uninfected cells. Viral reverse transcriptase (Wild Type) is found in extracts from bacterial clones prepared according to the procedure described in AIDS Virus Reverse Transcriptase defined by high level expression in Escherichia coli, EMBO J. 6:3133-3137 (1987). P236L viral reverse transcriptase is obtained by PNAS 90: 4713-4717 (1993). Inhibition of this enzyme is determined in a cell free assay which measures the level of radioactive precursors incorporated into DNA. Extracts prepared according to the procedure of Science, 1125-1129 (1981) are incubated in a mixture of inhibitor, 20 mM dithiothreitol, 60 mM sodium chloride, 0.05% NP-40, 10 mM magnesium chloride, 50 mM Tris pH 8.3, 10 μM [^35 S]-labeled deoxynuleoside-5'-triphosphate, 10 μg/ml RNA template (poly rC or poly rG) and 5 μg/ml DNA primer (oligo dG or oligo dT) for 30 minutes at 37° C. Incorporation of radio-labeled percursor is determined by spotting aliquots of the reaction mixture on DE81 paper, washing the papers to remove unincorporated percursor, drying and determining counts. The results (IC50 means the concentration, in μM of drug, required to inhibit the reverse transcriptase activity (P236L and Wild Type) to the extent of 50%) of various assay(s) are combined and reported as % inhibition and/or IC50 (calculated) in Table I (P236L) and Table II (Wild Type).

[2] = target: T2, P236L viral reverse transcriptase (Human immunodeficiency virus type 1 group M subtype B, UniProt P04585, P823L); assay: inhibition of viral reverse transcriptase (P236L), cell free assay; assay type: biochemical; conditions: IC50 (Table I, P236L), 30 minutes at 37° C.
T2 construct: P236L viral reverse transcriptase is obtained by PNAS 90: 4713-4717 (1993); made in house
Procedure, shortened: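 E. coli-expressed wild-type or P236L RT extracts incubated with inhibitor 30 min at 37 °C in Tris pH 8.3 with MgCl₂, NaCl, DTT, NP-40, 10 μM [35S]-dNTP, poly rC/rG template and oligo dG/dT primer. Incorporated label counted on DE81 paper; reported as % inhibition and/or IC50.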

[3] = 30 minutes at 37° C., read-out: IC50 (Table II, Wild Type)

SMILES	IC50 [1, 3]	IC50 [2]	also measured
CC(Sc1nc(N)cc(Cl)n1)c1cc2ccccc2cn1 (stereo not shown) [Example 230, 4-Amino-6-chloro-2-(1-(3-isoquinolyl)ethyl)thio-pyrimidine]	19 nM	39 nM	–
CC(C)c1ccnc(CSc2nc(N)cc(C(F)(F)F)n2)c1 [Example 271, 4-amino-6-trifluoromethyl-2-((4-(1-methylethyl)2-pyridyl)methyl)thio-pyrimidine]	31 nM	50 nM	–
N#Cc1cc(Cl)nc(SCc2ccc3ccccc3c2)n1 [Example 276, 6-chloro-2-(2-naphthylmethyl)thio-4-pyrimidine carbonitrile]	–	50000 nM	IC50 (Table II, Wild Type) ([1]; 30 minutes at 37° C.): INACTIVE
CCNC(=O)/C=C/CSc1nc(N)cc(Cl)n1 [Example 196, (E)-N-ethyl-4-[(4-amino-6-chloro-2-pyrimidinyl)thio]-2-butenamide]	–	10000 nM	inhibition at 50 µM [1]: 71%
CCN(CC)C(=O)/C=C/CSc1nc(N)cc(Cl)n1 [Example 194, (E)-N,N-Diethyl-4-[(4-amino-6-chloro-2-pyrimidinyl)thio]-2-butenamide]	49 nM	34 nM	–
Cc1coc2cnc(C(C)Sc3nc(N)cc(Cl)n3)cc12 (stereo not shown) [Example 246, 4-Amino-6-chloro-2-(1-(3-methylfuro[2,3c]pyridine-5-yl)ethyl)thio-pyrimidine]	24 nM	31 nM	–
CC(Sc1nc(N)cc(C(F)(F)F)n1)c1cc2ccoc2cn1 (stereo not shown) [Example 239, 4-Amino-6-trifluoromethyl-2-(1-(furo[2,3-c]pyridin-5-yl)ethyl)thio-pyrimidine]	50 nM	88 nM	–
CC(C)(C)c1ccnc(CSc2nc(N)cc(C(F)(F)F)n2)c1 [Example 273, 4-amino-6-trifluoromethyl-2-((4-(1,1-dimethylethyl)2-pyridyl)methyl)-thio-pyrimidine]	–	100 nM	inhibition at 1 µM [1]: 75%
CCc1ccnc([C@H](C)Sc2nc(N)cc(Cl)n2)c1 [Example 292, (-)-4-Amino-6-chloro-2-(1-(4-ethyl-2-pyridyl)ethyl)thio-pyrimidine]	–	17 nM	IC50 ([1]; IC50 (Table II, Wild Type), 30 minutes at 37° C.): 7 nM
CC(Sc1nc(N)cc(Cl)n1)c1ccc(OCc2ccccc2)c(Cl)n1 (stereo not shown) [Example 303, 4-amino-6-chloro-2-(((5-benzyloxy-6-chloro)-2-pyridyl)-ethyl)thio-pyrimidine]	50000 nM	5000 nM	–
CC(Sc1nc(N)cc(Cl)n1)c1cc2c(C(F)(F)F)coc2cn1 (stereo not shown) [Example 294]	233 nM	104 nM	–
CC(C)c1ccnc(C(C)Sc2nc(N)cc(C(F)(F)F)n2)c1 (stereo not shown) [Example 272, 4-amino-6-trifluoromethyl-2-(1-(4-(1-methylethyl)2-pyridyl)ethyl)thio-pyrimidine]	112 nM	160 nM	–
Cc1coc2cnc([C@H](C)Sc3nc(N)cc(C(F)(F)F)n3)cc12 [Example 297, (S)-(-)-4-Amino-6-trifluoromethyl-2-(l1-(3-methylfuro[2,3c]pyridin-5-yl)ethylthio)-pyrimidine]	78 nM	64 nM	–
Nc1cc(C(F)(F)F)nc(SCc2ccc3ccccc3c2)n1 [Example 270, 4-amino-6-trifluoromethyl-2-(2-naphthylmethyl)thio-pyrimidine]	434 nM	290 nM	–
COC(=O)/C=C/CSc1nc(N)cc(Cl)n1 [Example 193, (E)-4-[(4-Amino-6-chloro-2-pyrimidinyl)thio]-2-butenoic acid methyl ester]	5250 nM	930 nM	–
CC(Sc1nc(N)cc(Cl)n1)c1cc2ccoc2cn1 (stereo not shown) [Example 238, 4-Amino-6-chloro-2-(1-(furo[2,3-c]pyridin-5-yl)ethyl)thio-pyrimidine]	7 nM	11 nM	–
CN1CCN(C(=O)/C=C/CSc2nc(N)cc(Cl)n2)CC1 [Example 195, (E)-4-methyl-1-[4-[(4-amino-6-chloro-2-pyrimidinyl)thio]-1-oxo-2-butenyl]piperazine]	–	50000 nM	inhibition at 50 µM [1]: 40%
CCC(C)c1ccnc(C(C)Sc2nc(N)cc(Cl)n2)c1 (stereo not shown) [Example 256, 4-amino-6-chloro-2-(1-(4-(1-methylpropyl)-2-pyridyl)-ethyl)thio-pyrimidine]	93 nM	100 nM	–
Cc1ccnc(C(C)Sc2nc(N)cc(Cl)n2)c1 (stereo not shown) [Example 215, 4-Amino-6-chloro-2-(1-(4-methyl-2-pyridyl)ethyl)thio-pyrimidine hydrochloride]	17 nM	33 nM	–

SMILES	IC50 [1, 3]	IC50 [2]	also measured
CC(Sc1nc(N)cc(Cl)n1)c1cc(C2CCCC2)ccn1 (stereo not shown) [Example 253]	203 nM	200 nM	–
C=C(C)c1ccnc(C(C)Sc2nc(N)cc(Cl)n2)c1 (stereo not shown) [Example 221, 4-Amino-6-chloro-2-(1-(4-(1-methylethenyl)-2-pyridyl)ethyl)thio-pyrimidine]	19 nM	39 nM	–
C=Cc1cc(C(C)Sc2nc(N)cc(Cl)n2)nc(Cl)c1OC (stereo not shown) [Example 244, 4-Amino-6-chloro-2-(1-(6-chloro-5-methoxy-4-vinyl-2-pyridyl)ethyl)thio-pyrimidine]	141 nM	186 nM	–
CCc1ccnc(C(C)Sc2nc(N)cc(Cl)n2)c1 (stereo not shown) [Example 216, 4-Amino-6-chloro-2-(1-(4-ethyl-2-pyridyl)ethyl)thio-pyrimidine]	27 nM	30 nM	–
CC(Sc1nc(N)cc(Cl)n1)c1cc(C(C)(C)C)ccn1 (stereo not shown) [Example 210, 4-Amino-6-chloro-2-(1-(4-(1,1-dimethyl)ethyl-2-pyridyl)ethyl)thio-pyrimidine]	80 nM	99 nM	–
Cc1cc2cc(C(C)Sc3nc(N)cc(C(F)(F)F)n3)ncc2o1 (stereo not shown) [Example 243, 4-Amino-6-trifluoromethyl-2-(1-(2-methylfuro[2,3c]pyridine-5-yl)ethyl)thio-pyrimidine]	495 nM	188 nM	–
Cc1coc2cnc(C(C)Sc3nc(N)cc(C(F)(F)F)n3)cc12 (stereo not shown) [Example 296, 4-Amino-6-trifluoromethyl-2-(1-(3-methyl-furo[2,3c]pyridin-5-yl)ethylthio)-pyrimidine]	54 nM and 111 nM	79 nM and 83 nM and 75 nM	–
CC(C)Oc1ccnc(C(C)Sc2nc(N)cc(Cl)n2)c1 (stereo not shown) [Example 263]	–	100 nM	inhibition at 1 µM [1]: 86%
Cc1cc2cc(C(C)Sc3nc(N)cc(Cl)n3)nc(Cl)c2o1 (stereo not shown) [Example 240, 4-Amino-6-chloro-2-(1-(7-chloro-2-methylfuro[2,3c]pyridin-5-yl)ethyl)thio-pyrimidine]	381 nM	116 nM	–
CCN(CC)C(=O)/C=C/C(C)Sc1nc(N)cc(Cl)n1 (stereo not shown) [Example 207, (E)-N,N-Diethyl-4-[(4-amino-6-chloro-2-pyrimidinyl)thio]-2-pentenamide]	49 nM	68 nM	–
CCc1cc(C(C)Sc2nc(N)cc(Cl)n2)ncc1OC (stereo not shown) [Example 245, 4-Amino-6-chloro-2-(1-(4-ethyl-5-methoxy-2-pyridyl)ethyl)thio-pyrimidine]	343 nM	191 nM	–
Nc1cc(Cl)nc(SCc2cnc3occc3c2)n1 [Example 304, 4-amino-6-chloro-2-(furo[2,3-b]pyridin-5-yl-methylthio)-pyrimidine]	–	–	inhibition at 1 µM [1]: 94%
CN(C)C(=O)/C=C/CSc1nc(N)cc(Cl)n1 [Example 204, (E)-N,N-Dimethyl-4-[(4-amino-6-chloro-2-pyrimidinyl)thio]-2-butenamide]	–	–	inhibition at 1 µM [1]: 78%
CC(Sc1nc(N)cc(Cl)n1)c1nccc2c1CCCC2 (stereo not shown) [Example 235, 4-Amino-6-chloro-2-(1-(1-(5,6,7,8-tetrahydroisoquinolyl))-ethyl)thiopyrimidine]	–	–	inhibition at 1 µM [1]: 90%
CCC(Sc1nc(N)cc(Cl)n1)c1cc(C)ccn1 (stereo not shown) [Example 218, 4-Amino-6-chloro-2-(1-(4-methyl-2-pyridyl)propyl)thio-pyrimidine]	–	–	inhibition at 1 µM [1]: 84%
CC(Sc1nc(N)c(Br)c(Cl)n1)c1cc2ccccc2cn1 (stereo not shown) [Example 231, 4-Amino-5-bromo-6-chloro-2-(1-(3-isoquinolyl)ethyl)thio-pyrimidine]	–	–	inhibition at 1 µM [1]: 78%
Cc1ccnc(C(C)(C)Sc2nc(N)cc(Cl)n2)c1 [Example 213]	–	–	inhibition at 1 µM [1]: 72%
Cc1ccnc(C(C#N)Sc2nc(N)cc(Cl)n2)c1 (stereo not shown) [Example 217, 4-Amino-6-chloro-2-(1-(4-methyl-2-pyridyl)-1-cyanomethyl)thio-pyrimidine]	–	–	inhibition at 1 µM [1]: 58%
